How the values were obtained:
[1] = system: human lung fibroblastic cells; assay: Response of lung fibroblastic cells to the fibrinopeptide; assay type: cell-based
Text: The peptide of the invention is believed to play a role in inflammatory lung diseases in which fibrin deposition is also known to occur. My research has proven that human lung fibroblastic cells are also responsive to the fibrinopeptide, and under its influence, will express selective pro-inflammatory molecules on the cell surface and will secrete pro-inflammatory mediators, such as cytokines and chemical attractants for immune cells.

[2] = system: Synovial cells; assay: SAC competition assay by flow cytometry; assay type: binding, human
Text: Thus, labeled peptide could facilitate the isolation, identification and characterization of its receptor, through standard immunological techniques such as immunohistochemistry, flow cytometry and immunoprecipitation.

[3] = system: foreskin fibroblasts; assay: IL-6 ELISA on cell supernatants; assay type: cell-based, human; settings: overnight with GPRP
[4] = system: synovial cells from patients with osteoarthritis (OA); assay: ICAM-1 ELISA (O.D. 492); assay type: cell-based, human; settings: OA line; overnight; IL-1 0.5 ng/ml, GPRP or GPRP-amide 1 mg/ml, fibrinogen receptor peptide 0.1 mg/ml, FPA, FPB 10^−4 M
[5] = system: foreskin fibroblast cells; assay: In vitro T cell adhesion assay; assay type: cell-based, human; settings: Foreskin line, ± SD, triplicate wells
[6] = system: foreskin fibroblasts; assay: GRO-alpha ELISA on cell culture supernatants; assay type: cell-based, human; settings: for Increase in GRO-alpha secretion: foreskin FB
[7] = system: human foreskin fibroblasts; assay: Flow cytometry analysis of ICAM-1 expression; assay type: cell-based; settings: GPRP 1 mg/ml
[8] = system: synovial cells; assay: RT-PCR of IL-6 gene expression; assay type: cell-based; settings: versus controls
[9] = system: RA synovial fibroblasts; assay: IL-6 ELISA on cell supernatants; assay type: cell-based, human; settings: overnight with GPRP
[10] = system: foreskin fibroblasts; assay: ICAM-1 cell-ELISA (O.D. 492); assay type: cell-based, human
[11] = system: OA synovial cells; assay: PDTC inhibition of IL-1 and GPRP induction of ICAM-1 (ELISA); assay type: cell-based, human; settings: PDTC pre-incubation 1.5 hours, IL-1 or GPRP overnight, ± SD, triplicate
Text: (§1) NF-kappaB activation is already well known to affect a broad array of immediate-early gene products, such as TNF, interleukins, chemokines and colony stimulating factors; genes that are tightly regulated during inflammation and wound healing. […] PDTC is an anti-oxidant that prevents NF-kappaB activation and its translocation to the nucleus (Reference 26). […] [table]

[12] = system: RA synovial cells; assay: as above; assay type: cell-based, human; settings: PDTC pre-incubation 1.5 hours, IL-1 or GPRP overnight, ± SD, triplicate
Text: as §1

[13] = system: RA synovial cell lines; assay: Flow cytometry analysis of ICAM-1 expression; assay type: cell-based, human
[14] = system: synovial fibroblast lines; assay: V-CAM-1 expression on synovial lines; assay type: cell-based, human; settings: in response to the peptide
[15] = system: foreskin fibroblasts; assay: IL-8 ELISA on cell culture supernatants; assay type: cell-based, human; settings: 1 mg/ml GPRP
[16] = system: endothelial cells; assay: Fibrin co-culture with endothelial cells; assay type: cell-based
Text: (§2) Synthetic peptides modeled after these “knobs” are able to inhibit fibrin polymerization by covering up the “holes” on the gamma chains and are commercially available.

[17] = system: OA derived synovial cells; assay: In vitro T cell adhesion assay; assay type: cell-based, human; settings: OA line 15, ± SD, triplicate wells
[18] = system: RA synovial fibroblasts; assay: IL-8 ELISA on cell culture supernatants; assay type: cell-based, human; settings: for IL-8: 1 mg/ml GPRP
Protocol: (§3) I used commercial ELISA kits to assay cell culture supernatants of RA fibroblasts that were cultured for both 24 and 48 hours with or without peptide.

[19] = system: RA synovial fibroblasts; assay: GRO-alpha ELISA on cell culture supernatants; assay type: cell-based, human
Protocol: as §3

[20] = system: RA derived synovial cells; assay: In vitro T cell adhesion assay; assay type: cell-based, human; settings: ± SD, triplicate wells
[21] = system: fibrin polymerization; assay: Inhibition of fibrin polymerization; assay type: biochemical; settings: applicant's studies of fibrin co-culture (Reference 19)
Text: as §2
For example, changing Gly1 to anything else destroys its inhibitory action as there appears to be no extra “room” for a side chain in the gamma chain “hole” into which it must fit. However, as noted below, amino acid Pro4 functions differently.

[22] = RA line 4, fibrin clot 0.6 mg/ml or GPRP 1 mg/ml
[23] = RA line 9, fibrin clot 0.6 mg/ml or GPRP 1 mg/ml

Sequence of fibrin polymerization (P02679 27-453): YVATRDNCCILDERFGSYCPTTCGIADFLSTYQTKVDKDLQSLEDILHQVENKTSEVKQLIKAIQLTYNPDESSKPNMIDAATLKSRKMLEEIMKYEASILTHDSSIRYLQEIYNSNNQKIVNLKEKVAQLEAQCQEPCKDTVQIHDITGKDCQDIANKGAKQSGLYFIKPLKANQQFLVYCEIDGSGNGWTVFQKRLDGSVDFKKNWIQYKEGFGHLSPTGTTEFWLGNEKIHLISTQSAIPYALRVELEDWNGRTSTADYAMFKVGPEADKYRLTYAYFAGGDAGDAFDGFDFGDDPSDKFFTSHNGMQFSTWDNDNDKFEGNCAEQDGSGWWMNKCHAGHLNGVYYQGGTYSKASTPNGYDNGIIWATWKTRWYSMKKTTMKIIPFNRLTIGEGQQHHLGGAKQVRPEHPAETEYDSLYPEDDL
Sequence of fibrin polymerization (P02671 20-639 isoform P02671-2 partner limits assumed): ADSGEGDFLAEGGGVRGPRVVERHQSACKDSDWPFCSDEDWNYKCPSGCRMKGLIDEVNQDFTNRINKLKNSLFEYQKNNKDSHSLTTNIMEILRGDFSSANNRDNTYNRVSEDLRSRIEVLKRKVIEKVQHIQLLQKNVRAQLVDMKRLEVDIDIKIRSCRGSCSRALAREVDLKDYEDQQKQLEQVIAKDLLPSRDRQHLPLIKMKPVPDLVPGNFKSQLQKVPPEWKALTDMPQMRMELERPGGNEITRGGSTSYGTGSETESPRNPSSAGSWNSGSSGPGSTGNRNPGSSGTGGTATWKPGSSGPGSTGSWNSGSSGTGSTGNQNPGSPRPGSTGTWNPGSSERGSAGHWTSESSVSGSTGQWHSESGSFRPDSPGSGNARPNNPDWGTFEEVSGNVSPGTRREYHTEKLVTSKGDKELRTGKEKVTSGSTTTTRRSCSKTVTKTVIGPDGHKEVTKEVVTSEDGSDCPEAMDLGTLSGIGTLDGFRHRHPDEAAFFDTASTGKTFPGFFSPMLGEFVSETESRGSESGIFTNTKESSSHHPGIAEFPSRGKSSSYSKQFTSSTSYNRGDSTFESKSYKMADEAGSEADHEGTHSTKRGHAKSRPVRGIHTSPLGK
Sequence of fibrin polymerization (P02675 45-491 partner limits assumed): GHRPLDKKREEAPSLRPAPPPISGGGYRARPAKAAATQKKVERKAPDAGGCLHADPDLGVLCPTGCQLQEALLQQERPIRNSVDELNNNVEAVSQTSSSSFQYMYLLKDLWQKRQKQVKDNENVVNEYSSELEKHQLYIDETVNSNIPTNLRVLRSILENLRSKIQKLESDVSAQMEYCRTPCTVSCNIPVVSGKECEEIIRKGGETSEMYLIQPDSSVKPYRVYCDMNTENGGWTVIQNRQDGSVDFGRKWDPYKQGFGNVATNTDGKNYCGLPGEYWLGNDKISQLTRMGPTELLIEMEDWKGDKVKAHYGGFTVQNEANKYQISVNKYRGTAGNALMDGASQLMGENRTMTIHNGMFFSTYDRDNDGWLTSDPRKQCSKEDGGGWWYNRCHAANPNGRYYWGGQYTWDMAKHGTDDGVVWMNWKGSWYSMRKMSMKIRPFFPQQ

## Gly-Pro-Arg-Pro [GPRP]
[1]
  Responsiveness of lung fibroblastic cells (surface pro-inflammatory molecules, secreted mediators): responsive
[2]; unlabeled competitor
  Competition with biotin-labeled SAC for binding to human synovial fibroblasts: can compete
[2]; unlabeled competitor 2.5 mg for 3 hours, then labeled SAC[KBtn] for 1 hour, Avidin-FITC
  Mean (fluorescence of bound SAC[KBtn]): 33.58
[3]
  IL-6: 215 pg/mL
[4]
  ICAM-1 O.D. 492: 0.85 ± .08
[5]; GPRP 0.1 mg/ml overnight
  Adherent T cell numbers: 51 ± 3
[5]; GPRP 1 mg/ml overnight
  Adherent T cell numbers: 54 ± 11
[6]; Foreskin fibroblasts, 1 mg/ml GPRP
  GRO-alpha: 470 pg/mL
[6]; Foreskin fibroblasts, 1 mg/ml GPRP, versus control
  GRO-alpha Fold Increase: 1.2X
[6]; forty-eight hours
  Increase in GRO-alpha secretion: 1.2 fold
[6]; twenty-four hours
  Increase in GRO-alpha secretion: 1.2 fold
[7]
  ICAM-1 % positive: 86.7%
  ICAM-1 MFC: 2.26
[8]
  IL-6 gene expression: significantly more IL-6 gene expression than controls
[9]; RA #1
  IL-6: 2400 pg/mL
  IL-6 INCREASE over control: 1.50X
[9]; RA #11
  IL-6: 1700 pg/mL
  IL-6 INCREASE over control: 6.18X
[9]; RA #16
  IL-6: 11100 pg/mL
  IL-6 INCREASE over control: 3.70X
[9]; RA #18
  IL-6: 940 pg/mL
  IL-6 INCREASE over control: 1.90X
[10]; FF-#1, GPRP 0.10 mg/ml overnight
  ICAM-1 OD 492: 0.92 ± .02
[10]; FF-#1, GPRP 0.30 mg/ml overnight
  ICAM-1 OD 492: 0.99 ± .01
[10]; FF-#1, GPRP 1.00 mg/ml overnight
  ICAM-1 OD 492: 1.02 ± .01
[10]; FF-#1, GPRP .001 mg/ml overnight
  ICAM-1 OD 492: 0.92 ± .01
[10]; FF-#1, GPRP .003 mg/ml overnight
  ICAM-1 OD 492: 0.95 ± .06
[10]; FF-#1, GPRP .010 mg/ml overnight
  ICAM-1 OD 492: 0.93 ± .03
[10]; FF-#1, GPRP .030 mg/ml overnight
  ICAM-1 OD 492: 0.94 ± .05
[10]; FF-#2, GPRP 0.10 mg/ml overnight
  ICAM-1 OD 492: .72 ± .02
[10]; FF-#2, GPRP 0.30 mg/ml overnight
  ICAM-1 OD 492: .72 ± .03
[10]; FF-#2, GPRP 1.00 mg/ml overnight
  ICAM-1 OD 492: .78 ± .04
[10]; FF-#2, GPRP .001 mg/ml overnight
  ICAM-1 OD 492: .69 ± .02
[10]; FF-#2, GPRP .003 mg/ml overnight
  ICAM-1 OD 492: .71 ± .04
[10]; FF-#2, GPRP .010 mg/ml overnight
  ICAM-1 OD 492: .71 ± .02
[10]; FF-#2, GPRP .030 mg/ml overnight
  ICAM-1 OD 492: .70 ± .02
[10]; Foreskin fibroblasts, overnight, fibrin clots 0.6 mg/ml, GPRP 1 mg/ml or interferon γ 200 U/ml, mean ± SD
  ICAM-1 expression O.D. 492: 0.55 ± .05
[10]; Foreskin line, overnight, IL-1 0.5 ng/ml, GPRP or GPRP-amide 1 mg/ml, fibrinogen receptor peptide 0.1 mg/ml, FPA, FPB 10^−4 M
  ICAM-1 O.D. 492: 0.79 ± .02
[11]; OA line 2
  ICAM-1 O.D. 492: 1.66 ± .05
[11]; OA line 8
  ICAM-1 O.D. 492: 1.30 ± .09
[12]; RA line 5
  ICAM-1 O.D. 492: 1.83 ± .08
[12]; RA line 6
  ICAM-1 O.D. 492: 1.67 ± .06
[13]; [22]
  ICAM-1 % positive: 87.0%
  ICAM-1 MFC: 2.73
[13]; RA line 5, GPRP 1 mg/ml
  ICAM-1 % positive: 74.5%
  ICAM-1 MFC: 2.00
[13]; RA line 6, GPRP 1 mg/ml
  ICAM-1 % positive: 95.0%
  ICAM-1 MFC: 9.19
[13]; [23]
  ICAM-1 % positive: 80.1%
  ICAM-1 MFC: 3.62
[14]
  Lines tested that upregulated V-CAM-1 expression: about 50 % of the lines tested
[15]; 24 hr
  IL-8: 1,840 pg/ml
[15]; 48 hr
  IL-8: 1,200 pg/ml
[16]
  Direct effects on endothelial cells: no direct effects
[17]; GPRP 0.1 mg/ml overnight
  Adherent T cell numbers: 92 ± 27
[17]; GPRP 1 mg/ml overnight
  Adherent T cell numbers: 113 ± 44
[18]; RA Line 1, forty-eight hours
  Increase of IL-8 production: fifteen
[18]; RA Line 1, twenty-four hours
  Increase of IL-8 production: 12.6 fold
[18]; RA Line 2, forty-eight hours
  Increase of IL-8 production: ten
[18]; RA Line 2, twenty-four hours
  Increase of IL-8 production: ten
[18]; RA line 1, 24 hr
  IL-8: 16,000 pg/ml
[18]; RA line 1, 48 hr
  IL-8: 17,500 pg/ml
[18]; RA line 4, 24 hr
  IL-8: 9,000 pg/ml
[18]; RA line 4, 48 hr
  IL-8: 6,800 pg/ml
[19]; RA fibroblasts, visual observation of developed ELISA plates
  GRO-alpha Fold Increase: at least as much as was seen for IL-8
[19]; RA line 8, 1 mg/ml GPRP
  GRO-alpha: 8500 pg/mL
[19]; RA line 8, 1 mg/ml GPRP, versus control
  GRO-alpha Fold Increase: 21X
[20]; RA line 7, GPRP 0.1 mg/ml overnight
  Adherent T cell numbers: 184 ± 58
[20]; RA line 7, GPRP 1 mg/ml overnight
  Adherent T cell numbers: 153 ± 54
[20]; RA line 8, GPRP 0.1 mg/ml overnight
  Adherent T cell numbers: 99 ± 18
[20]; RA line 8, GPRP 1 mg/ml overnight
  Adherent T cell numbers: 97 ± 10
[21]
  Inhibition of fibrin polymerization: good inhibitor of fibrin polymerization

— US6908899B2, “Pro-inflammatory fibrinopeptide” (U.S. Dept. of Veterans Affairs, priority 2001, dated 2005)
